Measurements reported in patent US12226412B2, “Heteroaryl-ketone fused azadecalin glucocorticoid receptor modulators” (Corcept Therapeutics, Inc., priority 2012, dated 2025).

Legend:
[1] = test system: induction of TAT by dexamethasone in HepG2 cells; test: HepG2 tyrosine aminotransferase (TAT) assay; assay type: cell-based, human; details: HepG2 cells, challenge of 100 nM dexamethasone; Ki from IC50 by Cheng and Prusoff equation
human recombinant GR = molecular target: T1, human recombinant GR (Homo sapiens, UniProt P04150); test: Human glucocorticoid receptor (GR) fluorescence polarisation (FP) binding assay; details: human recombinant GR, fluorescence polarisation binding assay; read-out: GR binding
T1 construct: purchased PanVera P2812
T1 sequence (P04150 1-777): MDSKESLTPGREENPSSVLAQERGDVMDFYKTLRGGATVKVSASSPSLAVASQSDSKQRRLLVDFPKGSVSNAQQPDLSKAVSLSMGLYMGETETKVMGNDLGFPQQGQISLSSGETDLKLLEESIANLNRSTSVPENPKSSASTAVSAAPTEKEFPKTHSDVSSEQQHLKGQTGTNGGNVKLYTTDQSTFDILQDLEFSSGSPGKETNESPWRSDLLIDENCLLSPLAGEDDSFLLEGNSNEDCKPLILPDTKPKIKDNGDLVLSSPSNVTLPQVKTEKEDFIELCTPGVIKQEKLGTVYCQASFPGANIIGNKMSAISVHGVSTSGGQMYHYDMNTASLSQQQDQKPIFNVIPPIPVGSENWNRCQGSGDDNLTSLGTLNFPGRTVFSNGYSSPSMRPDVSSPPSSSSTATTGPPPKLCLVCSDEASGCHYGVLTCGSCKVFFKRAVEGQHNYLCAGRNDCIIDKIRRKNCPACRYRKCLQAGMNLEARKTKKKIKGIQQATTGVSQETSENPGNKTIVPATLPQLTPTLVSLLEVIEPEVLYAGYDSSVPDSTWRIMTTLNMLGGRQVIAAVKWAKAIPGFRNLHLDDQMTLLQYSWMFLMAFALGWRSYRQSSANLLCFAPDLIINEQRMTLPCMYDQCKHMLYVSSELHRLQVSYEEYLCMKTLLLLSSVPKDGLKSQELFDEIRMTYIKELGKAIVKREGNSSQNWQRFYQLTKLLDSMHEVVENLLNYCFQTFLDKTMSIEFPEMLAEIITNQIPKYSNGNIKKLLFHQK
Method in brief: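 Competition fluorescence polarisation: 0.5 nM GS Red labelled glucocorticoid and 1 nM recombinant human GR with 8-point half-log compound series, 1% DMSO, 4 h room temperature, potassium phosphate pH 7.4 buffer with molybdate, EDTA, DTT. Affinity derived from the drop in polarisation, normalised to blank wells.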

| Ki (human recombinant GR) | Compound | Ki [1] |
| --- | --- | --- |
| < 0.5 nM | Cc1ccnc(C(=O)[C@]23Cc4cnn(-c5ccc(F)cc5)c4C=C2CCN(S(=O)(=O)c2cn[nH]c2C)C3)c1 [Example 11BD, (R)-(1-(4-fluorophenyl)-6-((5-methyl-1H-pyrazol-4-yl)sulfonyl)-4,4a,5,6,7,8-hexahydro-1H-pyrazolo[3,4-g]isoquinolin-4a-yl)(4-methylpyridin-2-yl)methanone] | 20 to 100 nM |
| < 0.5 nM | O=C(c1ccccn1)[C@]12Cc3cnn(-c4ccc(F)cc4)c3C=C1CCN(S(=O)(=O)c1ccnc(C(F)(F)F)c1)C2 [Example 11BE, (R)-(1-(4-fluorophenyl)-6-((2-(trifluoromethyl)pyridin-4-yl)sulfonyl)-4,4a,5,6,7,8-hexahydro-1H-pyrazolo[3,4-g]isoquinolin-4a-yl)(pyridin-2-yl)methanone] | 20 to 100 nM |
| < 0.5 nM | O=C(c1ccccn1)[C@]12Cc3cnn(-c4ccc(F)cc4)c3C=C1CCN(S(=O)(=O)c1ccc(Cl)c(C(F)(F)F)c1)C2 [Example 11BF, (R)-(6-((4-chloro-3-(trifluoromethyl)phenyl)sulfonyl)-1-(4-fluorophenyl)-4,4a,5,6,7,8-hexahydro-1H-pyrazolo[3,4-g]isoquinolin-4a-yl)(pyridin-2-yl)methanone] | 20 to 100 nM |
| < 0.5 nM | Cc1ccc(S(=O)(=O)N2CCC3=Cc4c(cnn4-c4ccc(F)cc4)C[C@]3(C(=O)c3ccccn3)C2)cc1Cl [Example 11BG, (R)-(6-((3-chloro-4-methylphenyl)sulfonyl)-1-(4-fluorophenyl)-4,4a,5,6,7,8-hexahydro-1H-pyrazolo[3,4-g]isoquinolin-4a-yl)(pyridin-2-yl)methanone] | < 20 nM |
| > 1 nM | O=C(c1ccnc(N2CCCC2)c1)[C@]12Cc3cnn(-c4ccc(F)cc4)c3C=C1CCN(S(=O)(=O)c1ccc(F)c(F)c1)C2 [Example 11BH, (R)-(6-((3,4-difluorophenyl)sulfonyl)-1-(4-fluorophenyl)-4,4a,5,6,7,8-hexahydro-1H-pyrazolo[3,4-g]isoquinolin-4a-yl)(2-(pyrrolidin-1-yl)pyridin-4-yl)methanone] | ≥ 100 nM |
| < 0.5 nM | Cn1ccc(S(=O)(=O)N2CCC3=Cc4c(cnn4-c4ccc(F)cc4)C[C@]3(C(=O)c3cc(C(F)(F)F)ccn3)C2)n1 [Example 11BI, (R)-(1-(4-fluorophenyl)-6-((1-methyl-1H-pyrazol-3-yl)sulfonyl)-4,4a,5,6,7,8-hexahydro-1H-pyrazolo[3,4-g]isoquinolin-4a-yl)(4-(trifluoromethyl)pyridin-2-yl)methanone] | < 20 nM |
| < 0.5 nM | Cn1ccc(S(=O)(=O)N2CCC3=Cc4c(cnn4-c4ccc(F)cc4)C[C@]3(C(=O)c3ccccn3)C2)n1 [Example 11BJ, (R)-(1-(4-fluorophenyl)-6-((1-methyl-1H-pyrazol-3-yl)sulfonyl)-4,4a,5,6,7,8-hexahydro-1H-pyrazolo[3,4-g]isoquinolin-4a-yl)(pyridin-2-yl)methanone] | 20 to 100 nM |
| < 0.5 nM | Cc1[nH]ncc1S(=O)(=O)N1CCC2=Cc3c(cnn3-c3ccc(F)cc3)C[C@]2(C(=O)c2cc(C(F)(F)F)ccn2)C1 [Example 11BK, (R)-(1-(4-fluorophenyl)-6-((5-methyl-1H-pyrazol-4-yl)sulfonyl)-4,4a,5,6,7,8-hexahydro-1H-pyrazolo[3,4-g]isoquinolin-4a-yl)(4-(trifluoromethyl)pyridin-2-yl)methanone] | < 20 nM |
| < 0.5 nM | N#Cc1cccc(S(=O)(=O)N2CCC3=Cc4c(cnn4-c4ccc(F)cc4)C[C@]3(C(=O)c3cc(C(F)(F)F)ccn3)C2)c1 [Example 11BL, (R)-3-((1-(4-fluorophenyl)-4a-(4-(trifluoromethyl)picolinoyl)-4a,5,7,8-tetrahydro-1H-pyrazolo[3,4-g]isoquinolin-6 (4H)-yl)sulfonyl)benzonitrile] | < 20 nM |
